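At the GI50, growth is halved. TGI marks complete inhibition of growth.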
Columns and labels:
Assay in all cases: growth of human tumour cells (NCI), 384-well format
NCI/ADR-RES ovarian = test system: NCI/ADR-RES ovarian
SF-268 CNS = test system: SF-268 CNS
TK-10 renal = test system: TK-10 renal
SK-OV-3 ovarian = test system: SK-OV-3 ovarian
SK-MEL-28 melanoma = test system: SK-MEL-28 melanoma
CAKI-1 renal = test system: CAKI-1 renal
MALME-3M melanoma = test system: MALME-3M melanoma
SK-MEL-5 melanoma = test system: SK-MEL-5 melanoma
SR leukemia = test system: SR leukemia
RPMI-8226 leukemia = test system: RPMI-8226 leukemia
ACHN renal = test system: ACHN renal
NCI-H322M lung = test system: NCI-H322M lung
DU-145 prostate = test system: DU-145 prostate
U251 glioblastoma = test system: U251 glioblastoma
COLO 205 colon = test system: COLO 205 colon
MDA-MB-231 breast = test system: MDA-MB-231 breast
NCI-H522 lung = test system: NCI-H522 lung
M14 melanoma = test system: M14 melanoma
NCI-H460 NSCLC = test system: NCI-H460 NSCLC
OVCAR-3 ovarian = test system: OVCAR-3 ovarian
HCC-2998 colon = test system: HCC-2998 colon
HCT-116 colon = test system: HCT-116 colon
MDA-MB-468 breast = test system: MDA-MB-468 breast
MCF7 breast = test system: MCF7 breast
HL-60(TB) leukemia = test system: HL-60(TB) leukemia
A549 NSCLC = test system: A549 NSCLC
NCI-H23 lung = test system: NCI-H23 lung
MOLT-4 leukemia = test system: MOLT-4 leukemia
HOP-62 NSCLC = test system: HOP-62 NSCLC
HT29 colon = test system: HT29 colon
IGROV1 ovarian = test system: IGROV1 ovarian
EKVX NSCLC = test system: EKVX NSCLC
UACC-257 melanoma = test system: UACC-257 melanoma
SNB-19 CNS = test system: SNB-19 CNS
RXF 393 renal = test system: RXF 393 renal
HCT-15 colon = test system: HCT-15 colon
SNB-75 CNS = test system: SNB-75 CNS
SN12C renal = test system: SN12C renal
OVCAR-5 ovarian = test system: OVCAR-5 ovarian
UACC-62 melanoma = test system: UACC-62 melanoma
NCI-H226 lung = test system: NCI-H226 lung
A498 renal = test system: A498 renal
OVCAR-4 ovarian = test system: OVCAR-4 ovarian
LOX IMVI melanoma = test system: LOX IMVI melanoma
T-47D breast = test system: T-47D breast
HOP-92 NSCLC = test system: HOP-92 NSCLC
SF-539 CNS = test system: SF-539 CNS
BT-549 breast = test system: BT-549 breast
PC-3 prostate = test system: PC-3 prostate
OVCAR-8 ovarian = test system: OVCAR-8 ovarian
MDA-MB-435 melanoma = test system: MDA-MB-435 melanoma
SF-295 CNS = test system: SF-295 CNS
KM12 colon = test system: KM12 colon
HS 578T breast = test system: HS 578T breast

Cn1ncc(Cl)c1-c1cc(C(=O)N[C@H](CN)Cc2ccc(F)c(F)c2)oc1Cl
GI50 (NCI/ADR-RES ovarian): 4.1 µM | TGI (NCI/ADR-RES ovarian): 16.3 µM | GI50 (SF-268 CNS): 4.7 µM | TGI (SF-268 CNS): 16.9 µM | GI50 (TK-10 renal): 0.569 µM | TGI (TK-10 renal): 2.9 µM | GI50 (SK-OV-3 ovarian): 0.431 µM | TGI (SK-OV-3 ovarian): 8.2 µM | GI50 (SK-MEL-28 melanoma): 1.14 µM | TGI (SK-MEL-28 melanoma): 2.45 µM | GI50 (CAKI-1 renal): 2.23 µM | TGI (CAKI-1 renal): 12.1 µM | GI50 (MALME-3M melanoma): 1.05 µM | TGI (MALME-3M melanoma): 2.24 µM | GI50 (SK-MEL-5 melanoma): 1.01 µM | TGI (SK-MEL-5 melanoma): 2.18 µM | GI50 (SR leukemia): 0.517 µM | TGI (SR leukemia): 1.86 µM | GI50 (RPMI-8226 leukemia): 1.54 µM | TGI (RPMI-8226 leukemia): 2.99 µM | GI50 (ACHN renal): 2.77 µM | TGI (ACHN renal): 14.9 µM | GI50 (NCI-H322M lung): 2.34 µM | TGI (NCI-H322M lung): 13.9 µM | GI50 (DU-145 prostate): 3.72 µM | TGI (DU-145 prostate): 16.4 µM | GI50 (U251 glioblastoma): 1.14 µM | TGI (U251 glioblastoma): 3.97 µM | GI50 (COLO 205 colon): 0.833 µM | TGI (COLO 205 colon): 2.71 µM | GI50 (MDA-MB-231 breast): 7.04 µM | TGI (MDA-MB-231 breast): 19.9 µM | GI50 (NCI-H522 lung): 2.24 µM | TGI (NCI-H522 lung): 7.94 µM | GI50 (M14 melanoma): 1.49 µM | TGI (M14 melanoma): 2.91 µM | GI50 (NCI-H460 NSCLC): 0.0876 µM | TGI (NCI-H460 NSCLC): 2.18 µM | GI50 (OVCAR-3 ovarian): 2.17 µM | TGI (OVCAR-3 ovarian): 14.1 µM | GI50 (HCC-2998 colon): 0.772 µM | TGI (HCC-2998 colon): 2.21 µM | GI50 (HCT-116 colon): 2.33 µM | TGI (HCT-116 colon): 10.5 µM | GI50 (MDA-MB-468 breast): 0.0719 µM | TGI (MDA-MB-468 breast): 1.79 µM | GI50 (MCF7 breast): 0.13 µM | TGI (MCF7 breast): 1.8 µM | GI50 (HL-60(TB) leukemia): 1.26 µM | TGI (HL-60(TB) leukemia): 2.55 µM | GI50 (A549 NSCLC): 2.66 µM | TGI (A549 NSCLC): 13.9 µM | GI50 (NCI-H23 lung): 2.7 µM | TGI (NCI-H23 lung): 11.1 µM | GI50 (MOLT-4 leukemia): 0.06 µM | TGI (MOLT-4 leukemia): 0.347 µM | GI50 (HOP-62 NSCLC): 3.01 µM | TGI (HOP-62 NSCLC): 10.9 µM | GI50 (HT29 colon): 1.03 µM | TGI (HT29 colon): 7.49 µM | GI50 (IGROV1 ovarian): 0.0231 µM | TGI (IGROV1 ovarian): 0.178 µM | GI50 (EKVX NSCLC): 2.07 µM | TGI (EKVX NSCLC): 11 µM | GI50 (UACC-257 melanoma): 1.05 µM | TGI (UACC-257 melanoma): 2.24 µM | GI50 (SNB-19 CNS): 1.48 µM | TGI (SNB-19 CNS): 14.9 µM | GI50 (RXF 393 renal): 0.386 µM | TGI (RXF 393 renal): 2.18 µM | GI50 (HCT-15 colon): 0.702 µM | TGI (HCT-15 colon): 13.4 µM | GI50 (SNB-75 CNS): 0.211 µM | TGI (SNB-75 CNS): 2.29 µM | GI50 (SN12C renal): 1.96 µM | TGI (SN12C renal): 11.1 µM | GI50 (OVCAR-5 ovarian): 1.57 µM | TGI (OVCAR-5 ovarian): 4.56 µM | GI50 (UACC-62 melanoma): 1.06 µM | TGI (UACC-62 melanoma): 2.31 µM | GI50 (NCI-H226 lung): 2.54 µM | TGI (NCI-H226 lung): 8.16 µM | GI50 (A498 renal): 0.0257 µM | TGI (A498 renal): 0.782 µM | GI50 (OVCAR-4 ovarian): 6.6 µM | TGI (OVCAR-4 ovarian): 19.1 µM | GI50 (LOX IMVI melanoma): 1.94 µM | TGI (LOX IMVI melanoma): 3.95 µM | GI50 (T-47D breast): 0.137 µM | TGI (T-47D breast): 5.55 µM | GI50 (HOP-92 NSCLC): 2.36 µM | TGI (HOP-92 NSCLC): 11.2 µM | GI50 (SF-539 CNS): 0.0794 µM | TGI (SF-539 CNS): 1.92 µM | GI50 (BT-549 breast): 0.586 µM | TGI (BT-549 breast): 2.16 µM | GI50 (PC-3 prostate): 0.128 µM | TGI (PC-3 prostate): 2.16 µM | GI50 (OVCAR-8 ovarian): 3.31 µM | TGI (OVCAR-8 ovarian): 15.6 µM | GI50 (MDA-MB-435 melanoma): 1.82 µM | TGI (MDA-MB-435 melanoma): 6.67 µM | GI50 (SF-295 CNS): 0.527 µM | TGI (SF-295 CNS): 2.3 µM | GI50 (KM12 colon): 0.364 µM | TGI (KM12 colon): 2.82 µM | GI50 (HS 578T breast): 0.711 µM | TGI (HS 578T breast): 2.72 µM

— PubChem BioAssay (NCI)
